Laboratory results reported in patent US20130150399A1, “INHIBITORS OF THE UNFOLDED PROTEIN RESPONSE AND METHODS FOR THEIR USE” (The Board of Trustees of the Leland Stanford Junior …, priority 2006, published 2013).

Assays:
Grp78 = test: Western immunoblot of Grp78, HT1080 cells; format: cell-based, human; settings: irestatin 9389 2.5 μM, 16 hours (also 24 or 36 hours)
Protocol: Cells (2×10^6) were cultured in 10-cm dishes, collected using a cell scraper at 4° C., and lysed by addition of 150 μl cell lysis buffer [50 mM Tris pH 7.4, 150 mM NaCl, 10% glycerol, 0.5% Triton X-100. 0.5% NP-40, 2 mM Na3VO4, 20 mM beta-glycerophosphate, 10 mM NaF, 1 mM DTT, 1 mM PMSF). Lysates were centrifuged for 5 min at 10,000×g, and proteins (˜40 μg) were resolved by SDS-PAGE followed by semi-dry transfer to nitrocellulose membranes. Membranes were blocked in TBS-5% milk supplemented with 0.1% Tween-20. The blots were then probed overnight with relevant antibodies, washed, and incubated for 2 hours with species-specific secondary antibodies conjugated to horseradish peroxidase. After washing in block solution, immunoreactive material was detected by enhanced chemiluminescence (SuperSignal West Dura Extended, Pierce, Inc., Rockville, Ill.).
HT1080 cells were exposed to DMSO vehicle (lane 1), irestatin 9389 (2.5 μM; lane 2) for 16 hours or Tm (5 μg/ml; lane 3) for 8 hours. Following treatments, cells were harvested, lysed, and analyzed by immunoblotting using anti-Grp78 antibody (top) or anti-actin (bottom) as a loading control. […] Cell lysates were analyzed by Western immunoblotting using anti-IRE1α (bottom) or anti-phospho-IRE1α antibodies (top). […] Lysates were analyzed by Western blot using antisera specific for phospho-JNK1 (top) or total JNK1 (bottom). […]

XBP1-luciferase reporter = test: XBP-luciferase reporter high throughput screen / IRE IC50 (tunicamycin + thapsigargin induced); format: cell-based, human; settings: Assay IRE IC50; Conc 20 uM
Protocol: Specifically, HT1080 fibrosarcoma cells stably transfected with the unspliced XBP-1-luciferase reporter construct (3000/well) were plated onto a solid white 384 well microplate with a multidrop dispenser (40 μL per well). The plates were then placed into an automated incubator. After 24 hours of growth, a mixture of tunicamycin (1 μg/ml) and thapsigargin (100 nM) inducers were added, and candidate compounds were then added to the plates. After 24 hours, luciferase reagent (10 μl) was added to each well and the plates were read in a Molecular Devices Analyst GT (0.2 second read per well).
As described above in Example 2, HT1080 fibrosarcoma cells stably expressing the XBP-luciferase reporter were plated in a 384 well microplate (4000 cells/well). After 24 hours, cells were treated with a mixture of tunicamycin (4 μg/ml) and thapsigargin (0.4 μM), followed by the addition of one compound per well (10 μM). We screened a total of 66,000 diverse molecules obtained from Specs, Chembridge and ChemRX. Twenty-four hours post-induction, BriteGlo luciferase substrate (10 μl) was added to each well and the signal intensity determined in a plate reader (0.2 s read per well). […] We retested 431 compounds from the initial screen, and selected 58 compounds for additional analysis, including calculation of IC50 values and inhibition of a CMV-luciferase reporter.
Compounds of the screening library with structural similarity to compound 9389 (see Table 1) have been identified and in some cases further assayed for inhibitory activity. Compounds listed with “IC50” values were assayed secondarily after initially being identified in the high throughput screen. Each value represents a separate calculation of reporter inhibition based upon the high throughput robotic screening platform. The actual IC50 values are calculated and represent an estimate of the potency of each compound. This assay is not considered to be accurate below a concentration of 10 nM. Compounds classified with “mild” activity inhibited the XBP1-luciferase reporter by 10-30%. Compounds classified with “moderate” activity inhibited the XBP1-luciferase reporter by 30-75%. Compounds classified with “potent” activity inhibited the XBP1-luciferase reporter by 75-100%. Compounds classified with “undetected” activity inhibited the XBP1-luciferase reporter by less than 10% under the defined conditions.

## Cc1csc(NC(=O)CSc2nc3c(c(C(F)(F)F)c2C#N)CCC3)n1 [Compound 9389]
Grp78
  Grp78 levels: no effect on Grp78 levels
XBP1-luciferase reporter
  % Inh: 100.3%
